Where “and” joins values, the source holds several entries; their conditions need not be identical. Equal entries are not always repeated. Inconclusive results and toxic doses are left out.

For the assay, the system named is CD2F1 mice, L1210 leukemia ip, survival T/C. The experiment in a line: NCI In Vivo Anticancer Drug Screen. Data for tumor model L1210 Leukemia (intraperitoneal) in CD2F1 (CDF1) mice. As to conditions: higher = longer survival. The essentials: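 Activity against a transplanted murine tumor was judged by comparing the compound group with a vehicle group. The outcome in the treated animals was divided by that in the controls.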

Setting [1] is: endpoint: mean survival time, dose: 100.0 mg/kg/injection, schedule: Q04DX003 (ip), vehicle: saline with Tween-80.
Setting [2] is: endpoint: mean survival time, dose: 200.0 mg/kg/injection, schedule: Q04DX003 (ip), vehicle: saline with Tween-80.
Setting [3] is: endpoint: mean survival time, dose: 400.0 mg/kg/injection, schedule: Q04DX003 (ip), vehicle: saline with Tween-80.
Where [4] appears, read: endpoint: mean survival time, dose: 100.0 mg/kg/injection, schedule: Q01DX009 (ip), vehicle: saline with Tween-80.
Where [5] appears, read: endpoint: mean survival time, dose: 200.0 mg/kg/injection, schedule: Q01DX009 (ip), vehicle: saline with Tween-80.
Setting [6] is: endpoint: mean survival time, dose: 400.0 mg/kg/injection, schedule: Q01DX009 (ip), vehicle: saline with Tween-80.
Setting [7] is: endpoint: mean survival time, dose: 100.0 mg/kg/injection, schedule: Q01DX001 (ip), vehicle: saline.
Where [8] appears, read: endpoint: mean survival time, dose: 200.0 mg/kg/injection, schedule: Q01DX001 (ip), vehicle: saline.
Where [9] appears, read: endpoint: mean survival time, dose: 400.0 mg/kg/injection, schedule: Q01DX001 (ip), vehicle: saline.
[10] abbreviates: endpoint: mean survival time, dose: 50.0 mg/kg/injection, schedule: Q01DX009 (ip), vehicle: saline with Tween-80.
Where [11] appears, read: endpoint: mean survival time, dose: 100.0 mg/kg/injection, schedule: Q04DX003 (ip), vehicle: saline.
Where [12] appears, read: endpoint: mean survival time, dose: 100.0 mg/kg/injection, schedule: Q04DX002 (ip), vehicle: saline with Tween-80.
The mark [13] stands for this setting: endpoint: mean survival time, dose: 200.0 mg/kg/injection, schedule: Q04DX002 (ip), vehicle: saline with Tween-80.
Where [14] appears, read: endpoint: mean survival time, dose: 400.0 mg/kg/injection, schedule: Q04DX002 (ip), vehicle: saline with Tween-80.

Take `O=C(C/C(=N\C(=S)Nc1cc(C(F)(F)F)ccc1Cl)NO)N1CCCC1`: the T/C (endpoint: median survival time, dose: 12.5 mg/kg/injection, schedule: Q01DX009 (ip), vehicle: saline with Tween-80) was 101 % of control; the T/C (endpoint: median survival time, dose: 25.0 mg/kg/injection, schedule: Q01DX009 (ip), vehicle: saline with Tween-80) is 97 % of control and 105 % of control; the T/C (endpoint: median survival time, dose: 50.0 mg/kg/injection, schedule: Q01DX009 (ip), vehicle: saline with Tween-80) was 102 % of control (2×) and 106 % of control; the T/C (endpoint: median survival time, dose: 100.0 mg/kg/injection, schedule: Q01DX009 (ip), vehicle: saline with Tween-80) was 108 % of control and 109 % of control; the T/C (endpoint: median survival time, dose: 200.0 mg/kg/injection, schedule: Q01DX009 (ip), vehicle: saline with Tween-80) is 121 % of control and 122 % of control and 123 % of control; the T/C (endpoint: median survival time, dose: 300.0 mg/kg/injection, schedule: Q01DX009 (ip), vehicle: saline with Tween-80) was 86 % of control.

As for `c1ccc(-c2ncnc3ccccc23)cc1`, the T/C was 103 % of control under setting [1], 101 % of control under setting [2] and 97 % of control under setting [3].

For `COc1ccc(/C=C2\SC(=O)NC2=O)cc1`, the T/C under setting [1] was 102 % of control and the T/C under setting [2] is 100 % of control.

Consider `COC1CCC(/C(C#N)=C/C2CCC(N(C)C)CC2)CC1` (stereo not drawn), for which the T/C runs as follows: under setting [4], 89 % of control; under setting [5], 100 % of control; under setting [6], 96 % of control.

Take `O=C(O)c1ccccc1C(=O)c1ccc(Cl)cc1`: the T/C is 100 % of control under setting [4]; 94 % of control under setting [1]; 110 % of control under setting [5]; 97 % of control under setting [2]; 108 % of control under setting [6]; 95 % of control under setting [3].

On to `O=C1C=C(N2CCOCC2)C(=O)c2nccnc21`, for which the T/C is 95 % of control (endpoint: mean survival time, dose: 25.0 mg/kg/injection, schedule: Q04DX003 (ip), vehicle: saline with Tween-80) and 95 % of control (endpoint: mean survival time, dose: 50.0 mg/kg/injection, schedule: Q04DX003 (ip), vehicle: saline with Tween-80).

Regarding `c1ccc(COCCOCc2ccccc2)cc1`, the T/C was 96 % of control under setting [1], 97 % of control under setting [2] and 108 % of control under setting [3].

Take `CC(=O)Oc1cc2c(=O)oc3cc(OC(C)=O)c(=O)oc3c2c(OC(C)=O)c1OC(C)=O`: the T/C reads like this: under setting [7], 98 % of control; under setting [8], 101 % of control; under setting [9], 110 % of control.

Turning to `CC(C)Cc1ccc(OC(=O)Nc2ccc(Cl)cc2)cc1`, the T/C (endpoint: mean survival time, dose: 25.0 mg/kg/injection, schedule: Q01DX009 (ip), vehicle: saline with Tween-80) is 106 % of control; the T/C under setting [10] was 94 % of control; the T/C under setting [4] was 95 % of control; the T/C under setting [1] was 86 % of control.

For the compound `Cc1nc(-c2ccccc2)[nH]c(=O)c1CC(C)O` (stereo not drawn), the T/C was 91 % of control under setting [4]; 94 % of control under setting [1]; 96 % of control under setting [5]; 95 % of control under setting [2]; 92 % of control under setting [3].

Turning to `Nc1nc(N)c2c(=O)c(CSc3ccc(C(=O)NC(CCC(=O)O)C(=O)O)cc3)c[nH]c2n1` (stereo not drawn), the T/C reads like this: (endpoint: mean survival time, dose: 0.5 mg/kg/injection, schedule: Q01DX005 (ip), vehicle: sodium bicarbonate) 92 % of control and 104 % of control; (endpoint: mean survival time, dose: 1.0 mg/kg/injection, schedule: Q01DX005 (ip), vehicle: sodium bicarbonate) 92 % of control and 106 % of control; (endpoint: mean survival time, dose: 2.0 mg/kg/injection, schedule: Q01DX005 (ip), vehicle: sodium bicarbonate) 89 % of control and 108 % of control; (endpoint: mean survival time, dose: 4.0 mg/kg/injection, schedule: Q01DX005 (ip), vehicle: sodium bicarbonate) 95 % of control and 104 % of control; (endpoint: mean survival time, dose: 8.0 mg/kg/injection, schedule: Q01DX005 (ip), vehicle: sodium bicarbonate) 95 % of control and 108 % of control; (endpoint: mean survival time, dose: 16.0 mg/kg/injection, schedule: Q01DX005 (ip), vehicle: sodium bicarbonate) 95 % of control and 106 % of control.

Take `CC([NH-])C[NH-].O=C(O)C(O)C(O)C(O)C(O)CO.O=C(O)C(O)C(O)C(O)C(O)CO.[Pt+2]` (stereo not drawn): the T/C is 113 % of control (endpoint: mean survival time, dose: 25.0 mg/kg/injection, schedule: Q04DX003 (ip), vehicle: saline); 120 % of control (endpoint: mean survival time, dose: 50.0 mg/kg/injection, schedule: Q04DX003 (ip), vehicle: saline); 123 % of control under setting [11].

Consider `Cc1cc(C)c2c(C#N)cn(-c3cccc(Cl)c3)c2n1`, for which the T/C under setting [11] was 97 % of control.

As to `CC12c3ccccc3C(c3ccccc31)C1C(=O)OC(=O)C12` (stereo not drawn), the T/C runs as follows: under setting [10], 95 % of control; under setting [4], 103 % of control.

As to `CC(=O)/C(=C\c1ccccc1)CNC(C)(C)C`, the T/C reads like this: (endpoint: mean survival time, dose: 25.0 mg/kg/injection, schedule: Q01DX001 (ip), vehicle: saline with Tween-80) 92 % of control; (endpoint: mean survival time, dose: 50.0 mg/kg/injection, schedule: Q01DX001 (ip), vehicle: saline with Tween-80) 100 % of control; (endpoint: mean survival time, dose: 100.0 mg/kg/injection, schedule: Q01DX001 (ip), vehicle: saline with Tween-80) 100 % of control.

As for `C=CCS(=O)(=O)Cc1cccc(C)c1`, the T/C (endpoint: mean survival time, dose: 100.0 mg/kg/injection, schedule: Q01DX001 (ip), vehicle: Klucel (hydroxypropylcellulose) (HPC)) is 93 % of control; the T/C (endpoint: mean survival time, dose: 200.0 mg/kg/injection, schedule: Q01DX001 (ip), vehicle: Klucel (hydroxypropylcellulose) (HPC)) is 107 % of control; the T/C (endpoint: mean survival time, dose: 400.0 mg/kg/injection, schedule: Q01DX001 (ip), vehicle: Klucel (hydroxypropylcellulose) (HPC)) is 101 % of control.

For `Cc1ccc(S(=O)(=O)OCC(OS(=O)(=O)c2ccc(C)cc2)C2OC3OC(C)(C)OC3C2OS(=O)(=O)c2ccc(C)cc2)cc1` (stereo not drawn), the T/C runs as follows: under setting [4], 103 % of control; under setting [1], 96 % of control; under setting [5], 103 % of control; under setting [2], 87 % of control; under setting [6], 89 % of control; under setting [3], 90 % of control.

Turning to `CC12CCC=CC1=CC(=O)CC2` (stereo not drawn), the T/C is, setting by setting: under setting [12], 96 % of control; under setting [13], 100 % of control; under setting [14], 124 % of control.

In the case of `CC(C)C1CCC(C)C(C(O)(C(F)(F)F)C(F)(F)F)C1O` (stereo not drawn), the T/C is 101 % of control under setting [7]; 98 % of control under setting [12]; 101 % of control under setting [8]; 98 % of control under setting [13]; 97 % of control under setting [9]; 94 % of control under setting [14].

For `CCCCCCC1=C(O)C(=O)C(CCCCCC)=C(O)C1=O`, the T/C reads like this: under setting [7], 100 % of control; under setting [8], 97 % of control; under setting [9], 97 % of control.

In the case of `C=CCOCC(O)C[As](=O)(O)c1ccc(Cl)cc1` (stereo not drawn), the T/C (endpoint: mean survival time, dose: 6.25 mg/kg/injection, schedule: Q04DX003 (ip), vehicle: saline with Tween-80) was 109 % of control and the T/C (endpoint: mean survival time, dose: 12.5 mg/kg/injection, schedule: Q04DX003 (ip), vehicle: saline with Tween-80) was 111 % of control.

Consider `C=C(Cl)CSCC`, for which the T/C (endpoint: mean survival time, dose: 25.0 mg/kg/injection, schedule: Q01DX009 (ip), vehicle: acetone) is 114 % of control and the T/C (endpoint: mean survival time, dose: 50.0 mg/kg/injection, schedule: Q01DX009 (ip), vehicle: acetone) was 120 % of control.

On to `O=P(O)(NCCCl)NCCCl`, for which the T/C reads like this: under setting [7], 404 % of control; under setting [8], 488 % of control; (endpoint: median survival time, dose: 25.0 mg/kg/injection, schedule: Q01DX001 (ip), vehicle: saline with Tween-80) 116 % of control; (endpoint: median survival time, dose: 50.0 mg/kg/injection, schedule: Q01DX001 (ip), vehicle: saline with Tween-80) 160 % of control; (endpoint: median survival time, dose: 75.0 mg/kg/injection, schedule: Q01DX001 (ip), vehicle: saline) 356 % of control; (endpoint: median survival time, dose: 100.0 mg/kg/injection, schedule: Q01DX001 (ip), vehicle: saline with Tween-80) 160 % of control and 185 % of control. In addition, the T/C runs as follows: (endpoint: median survival time, dose: 100.0 mg/kg/injection, schedule: Q01DX001 (ip), vehicle: saline) 232 % of control and 410 % of control; (endpoint: median survival time, dose: 100.0 mg/kg/injection, schedule: Q01DX001 (iv), vehicle: saline) 219 % of control; (endpoint: median survival time, dose: 125.0 mg/kg/injection, schedule: Q01DX001 (ip), vehicle: saline) 202 % of control; (endpoint: median survival time, dose: 150.0 mg/kg/injection, schedule: Q01DX001 (ip), vehicle: saline) 205 % of control; (endpoint: median survival time, dose: 150.0 mg/kg/injection, schedule: Q01DX001 (iv), vehicle: saline) 86 % of control; (endpoint: median survival time, dose: 200.0 mg/kg/injection, schedule: Q01DX001 (ip), vehicle: saline with Tween-80) 191 % of control.

For the compound `Cc1occc1S(N)(=O)=O`, the T/C (endpoint: mean survival time, dose: 75.0 mg/kg/injection, schedule: Q04DX002 (ip), vehicle: saline with Tween-80) is 120 % of control.

`COc1c(NS(=O)(=O)c2ccccc2)cc2c3c(cccc13)/C(=C1\Cc3cccc4c(OC)c(NS(=O)(=O)c5ccccc5)cc1c34)C2`: the T/C is, setting by setting: under setting [1], 95 % of control; under setting [2], 91 % of control; under setting [3], 92 % of control.
